Patent publication US20250109118A1, “HETEROCYCLIC COMPOUNDS AS SHP2 INHIBITORS, COMPOSITIONS COMPRISING THE HETEROCYCLIC COMPOUND, AND METHODS OF USE THEREOF” (JS INNOMED HOLDINGS LTD., priority 2021, published 2025)

Test system: MiaPaCa-2 cells
Assay: MiaPaCa-2 Cell proliferation assay in 3D culture (CCK8)
Assay type: cell-based
Conditions: Homo sapiens, MIA PaCa-2, 120 h; 3D spheroid culture, 5 days with compound, CCK8 readout
Procedure: MiaPaCa-2 Cell proliferation assay in 3D culture. To evaluate cell viability, MiaPaCa-2 cells in logarithmic growth phase were seeded at optimal density and grown in as spheroids. Cells were incubated for 24 hours prior to the addition of different concentrations of the compounds. Cells were cultured with the compounds for 5 days and the cell viability was assessed using CCK8. Briefly, 2500 cells were seeded in round bottom ultra-low attachment 96 well plates (coming) in growth media supplemented with 10% FBS and incubated at 37° C. for 24 hours. The compounds were dissolved in DMSO (Sigma) to obtain 10 mM stock solution. Then the compounds were serially diluted in 3-fold to ten concentrations; 5 μL of the dilution above was transferred to 95 uL culture media to obtain the 50× compound stock solution; 4 uL of the 50× compound above was then transferred to the wells containing cells with 196 μL of the culture medium to obtain the final 1× concentration. The final concentration of DMSO was 0.1%. Spheroid cells were incubated in compounds for 5 days. Then 20 μL WST-8 solution (DOJINDO, Cell Counting KIT-8) was added to each well. The plates were further incubated at 37° C. for 1.5 hours, and then absorbance at 450 nm was measured using a microplate reader. Each compound was tested in triplicate and the IC50 value was calculated using GraphPad Prism.
The IC50 values of for Compounds disclosed are listed in Table 2, A: ≤500 nM; B: >500 nM and ≤5 μM; C: >5 μM and ≤50 μM; and D: >50 μM.

| Structure (SMILES) | IC50 |
| --- | --- |
| C[C@@H]1OCC2(CCN(c3cnc(Sc4cccc(NC(=O)NS(=O)(=O)c5ccncc5)c4Cl)cn3)CC2)[C@@H]1N [Example 72, N-((3-((5-((3S,4S)-4-amino-3-methyl-2-oxa-8-azaspiro[4.5]decan-8-yl)pyrazin-2-yl)thio)-2-chlorophenyl)carbamoyl)pyridine-4-sulfonamide] | ≤ 500 nM |
| C[C@@H]1OCC2(CCN(c3cnc(Sc4cccc(NC(=O)NS(=O)(=O)c5ccccn5)c4Cl)cn3)CC2)[C@@H]1N [Example 63, N-((3-((5-((3S,4S)-4-amino-3-methyl-2-oxa-8-azaspiro[4.5]decan-8-yl)pyrazin-2-yl)thio)-2-chlorophenyl)carbamoyl)pyridine-2-sulfonamide] | ≤ 500 nM |
| C[C@@H]1OCC2(CCN(c3cnc(Sc4ccnc(NC(=O)NS(=O)(=O)c5cnn(C)c5)c4Cl)cn3)CC2)[C@@H]1N [Example 55, N-((4-((5-((3S,4S)-4-amino-3-methyl-2-oxa-8-azaspiro[4.5]decan-8-yl)pyrazin-2-yl)thio)-3-chloropyridin-2-yl)carbamoyl)-1-methyl-1H-pyrazole-4-sulfonamide] | ≤ 500 nM |
| C[C@@H]1OCC2(CCN(c3cnc(Sc4ccnc(NC(=O)NS(=O)(=O)c5cccnc5)c4Cl)cn3)CC2)[C@@H]1N [Example 51, N-((4-((5-((3S,4S)-4-amino-3-methyl-2-oxa-8-azaspiro[4.5]decan-8-yl)pyrazin-2-yl)thio)-3-chloropyridin-2-yl)carbamoyl)pyridine-3-sulfonamide] | 500 to 5000 nM |
| CC1(CN)CCN(c2cnc(Sc3cccc(NC(=O)NS(=O)(=O)c4cccnc4)c3Cl)c(N)n2)CC1 [Example 46, N-((3-((3-amino-5-(4-(aminomethyl)-4-methylpiperidin-1-yl)pyrazin-2-yl)thio)-2-chlorophenyl)carbamoyl)pyridine-3-sulfonamide] | ≤ 500 nM |
| C[C@@H]1OCC2(CCN(c3cnc(Sc4cccc(NC(=O)NS(=O)(=O)C5CC5)c4Cl)cn3)CC2)[C@@H]1N [Example 66, N-((3-((5-((3S,4S)-4-amino-3-methyl-2-oxa-8-azaspiro[4.5]decan-8-yl)pyrazin-2-yl)thio)-2-chlorophenyl)carbamoyl)cyclopropanesulfonamide] | ≤ 500 nM |
| CC1(CN)CCN(c2cnc(Sc3cccc(NC(=O)NS(=O)(=O)c4ccccn4)c3Cl)c(N)n2)CC1 [Example 45, N-((3-((3-amino-5-(4-(aminomethyl)-4-methylpiperidin-1-yl)pyrazin-2-yl)thio)-2-chlorophenyl)carbamoyl)pyridine-2-sulfonamide] | ≤ 500 nM |
| C[C@@H]1OCC2(CCN(c3ncc(Sc4ccnc(NC(=O)NS(=O)(=O)c5ccccc5)c4Cl)c4nncn34)CC2)[C@@H]1N [Example 15, N-((4-((5-((3S,4S)-4-amino-3-methyl-2-oxa-8-azaspiro[4.5]decan-8-yl)[1,2,4]triazolo[4,3-c]pyrimidin-8-yl)thio)-3-chloropyridin-2-yl)carbamoyl)benzenesulfonamide] | 500 to 5000 nM |
| C[C@@H]1OCC2(CCN(c3cnc(Sc4ccnc(NC(=O)NS(=O)(=O)c5ccccc5)c4Cl)cn3)CC2)[C@@H]1N [Example 6, N-((4-((5-((3S,4S)-4-amino-3-methyl-2-oxa-8-azaspiro[4.5]decan-8-yl)pyrazin-2-yl)thio)-3-chloropyridin-2-yl)carbamoyl)benzenesulfonamide] | ≤ 500 nM |
| C[C@@H]1OCC2(CCN(c3cnc(Sc4cccc(NC(=O)NS(=O)(=O)C5CCN(C)CC5)c4Cl)cn3)CC2)[C@@H]1N [Example 70, N-((3-((5-((3S,4S)-4-amino-3-methyl-2-oxa-8-azaspiro[4.5]decan-8-yl)pyrazin-2-yl)thio)-2-chlorophenyl)carbamoyl)-1-methylpiperidine-4-sulfonamide] | ≤ 500 nM |
| N[C@@H]1c2cnccc2CC12CCN(c1cnc(Sc3cccc(NC(=O)NS(=O)(=O)c4ccccc4)c3Cl)cn1)CC2 [Example 67, (S)—N-((3-((5-(7-amino-5,7-dihydrospiro[cyclopenta[c]pyridine-6,4′-piperidin]-1′-yl)pyrazin-2-yl)thio)-2-chlorophenyl)carbamoyl)benzenesulfonamide] | ≤ 500 nM |
| C[C@@H]1OCC2(CCN(c3cnc(Sc4ccnc(NC(=O)NS(=O)(=O)c5ccc(F)cc5)c4Cl)cn3)CC2)[C@@H]1N [Example 53, N-((4-((5-((3S,4S)-4-amino-3-methyl-2-oxa-8-azaspiro[4.5]decan-8-yl)pyrazin-2-yl)thio)-3-chloropyridin-2-yl)carbamoyl)-4-fluorobenzenesulfonamide] | ≤ 500 nM |
| CC1(CN)CCN(c2cnc(Sc3cccc(C(=O)NS(=O)(=O)C4CCCC4)c3Cl)c(N)n2)CC1 [Example 44, 3-((3-amino-5-(4-(aminomethyl)-4-methylpiperidin-1-yl)pyrazin-2-yl)thio)-2-chloro-N-(cyclopentylsulfonyl)benzamide] | ≤ 500 nM |
| C[C@@H]1OCC2(CCN(c3cnc(Sc4ccnc(C(=O)NS(=O)(=O)c5ccccc5)c4Cl)cn3)CC2)[C@@H]1N [Example 71, 4-((5-((3S,4S)-4-amino-3-methyl-2-oxa-8-azaspiro[4.5]decan-8-yl)pyrazin-2-yl)thio)-3-chloro-N-(phenylsulfonyl)picolinamide] | 500 to 5000 nM |
| C[C@@H]1OCC2(CCN(c3cnc(Sc4cccc(NC(=O)NS(=O)(=O)c5ccccc5)c4Cl)cn3)CC2)[C@@H]1N [Example 49, N-((3-((5-((3S,4S)-4-amino-3-methyl-2-oxa-8-azaspiro[4.5]decan-8-yl)pyrazin-2-yl)thio)-2-chlorophenyl)carbamoyl)benzenesulfonamide] | ≤ 500 nM |
| N[C@@H]1c2ncccc2CC12CCN(c1cnc(Sc3ccnc(NC(=O)NS(=O)(=O)c4ccccc4)c3Cl)cn1)CC2 [Example 14, (S)—N-((4-((5-(7-amino-5,7-dihydrospiro[cyclopenta[b]pyridine-6,4′-piperidin]-1′-yl)pyrazin-2-yl)thio)-3-chloropyridin-2-yl)carbamoyl)benzenesulfonamide] | 500 to 5000 nM |
| C[C@@H]1OCC2(CCN(c3cnc(Sc4cccc(NC(=O)NS(=O)(=O)c5ccccc5F)c4Cl)cn3)CC2)[C@@H]1N [Example 10, N-((3-((5-((3S,4S)-4-amino-3-methyl-2-oxa-8-azaspiro[4.5]decan-8-yl)pyrazin-2-yl)thio)-2-chlorophenyl)carbamoyl)-2-fluorobenzenesulfonamide] | ≤ 500 nM |

Next, values leading:

| IC50 | Structure (SMILES) |
| --- | --- |
| ≤ 500 nM | C[C@@H]1OCC2(CCN(c3cnc(Sc4cccc(NC(=O)NS(=O)(=O)N5CCOCC5)c4Cl)cn3)CC2)[C@@H]1N [Example 74, N-((3-((5-((3S,4S)-4-amino-3-methyl-2-oxa-8-azaspiro[4.5]decan-8-yl)pyrazin-2-yl)thio)-2-chlorophenyl)carbamoyl)morpholine-4-sulfonamide] |
| ≤ 500 nM | Cc1noc(C)c1S(=O)(=O)NC(=O)Nc1nccc(Sc2cnc(N3CCC4(CC3)CO[C@@H](C)[C@H]4N)cn2)c1Cl [Example 76, N-((4-((5-((3S,4S)-4-amino-3-methyl-2-oxa-8-azaspiro[4.5]decan-8-yl)pyrazin-2-yl)thio)-3-chloropyridin-2-yl)carbamoyl)-3,5-dimethylisoxazole-4-sulfonamide] |
| ≤ 500 nM | C[C@@H]1OCC2(CCN(c3cnc(Sc4cccc(NC(=O)NS(=O)(=O)c5ccc(F)cc5)c4Cl)cn3)CC2)[C@@H]1N [Example 78, N-((3-((5-((3S,4S)-4-amino-3-methyl-2-oxa-8-azaspiro[4.5]decan-8-yl)pyrazin-2-yl)thio)-2-chlorophenyl)carbamoyl)-4-fluorobenzenesulfonamide] |
| ≤ 500 nM | C[C@@H]1OCC2(CCN(c3cnc(Sc4cccc(NC(=O)NS(=O)(=O)N5CCC(O)C5)c4Cl)cn3)CC2)[C@@H]1N (stereo partly drawn) [Example 81, N-((3-((5-((3S,4S)-4-amino-3-methyl-2-oxa-8-azaspiro[4.5]decan-8-yl)pyrazin-2-yl)thio)-2-chlorophenyl)carbamoyl)-3-hydroxypyrrolidine-1-sulfonamide] |
| ≤ 500 nM | C[C@@H]1OCC2(CCN(c3cnc(Sc4cccc(NC(=O)NS(=O)(=O)C5CCOC5)c4Cl)cn3)CC2)[C@@H]1N (stereo partly drawn) [Example 83, N-((3-((5-((3S,4S)-4-amino-3-methyl-2-oxa-8-azaspiro[4.5]decan-8-yl)pyrazin-2-yl)thio)-2-chlorophenyl)carbamoyl)tetrahydrofuran-3-sulfonamide] |
| ≤ 500 nM | C[C@@H]1OCC2(CCN(c3cnc(Sc4cccc(NC(=O)NS(=O)(=O)C5CCC5)c4Cl)cn3)CC2)[C@@H]1N [Example 82, N-((3-((5-((3S,4S)-4-amino-3-methyl-2-oxa-8-azaspiro[4.5]decan-8-yl)pyrazin-2-yl)thio)-2-chlorophenyl)carbamoyl)cyclobutanesulfonamide] |
| ≤ 500 nM | C[C@@H]1OCC2(CCN(c3cnc(Sc4cccc(NC(=O)NS(=O)(=O)N5CCC(N)C5)c4Cl)cn3)CC2)[C@@H]1N (stereo partly drawn) [Example 84, 3-amino-N-((3-((5-((3S,4S)-4-amino-3-methyl-2-oxa-8-azaspiro[4.5]decan-8-yl)pyrazin-2-yl)thio)-2-chlorophenyl)carbamoyl)pyrrolidine-1-sulfonamide] |
| ≤ 500 nM | C[C@@H]1OCC2(CCN(c3cnc(Sc4cccc(NC(=O)NS(=O)(=O)N5CCCCC5)c4Cl)cn3)CC2)[C@@H]1N [Example 75, N-((3-((5-((3S,4S)-4-amino-3-methyl-2-oxa-8-azaspiro[4.5]decan-8-yl)pyrazin-2-yl)thio)-2-chlorophenyl)carbamoyl)piperidine-1-sulfonamide] |
